We go through 15 molecules from PubChem BioAssay (NCI).

Structures are written as SMILES.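 48-hour exposure; five concentrations; linearly interpolated endpoints. Abbreviation: GI50, concentration required for 50% inhibition of growth. The concentration for full growth arrest is given as TGI.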 Where a SMILES comes first, the peptide text is derived from it. The star is where a group is joined. Boc = CC(C)(C)OC(=O)*; OBn = c1ccc(CO*)cc1

Holding throughout (assay): NCI-60 cell line screen, 48 h
Experiment [1] deals with KM12 colon.
Experiment [2] concerns OVCAR-8 ovarian.
Experiment [3] concerns IGROV1 ovarian.
The subject of experiment [4] is SF-268 CNS.
Experiment [5] concerns HOP-92 NSCLC.
Experiment [6] concerns UO-31 renal.
In experiment [7] the test system is HCC-2998 colon.
The subject of experiment [8] is NCI/ADR-RES ovarian.
Experiment [9] deals with DU-145 prostate.
Experiment [10] relates to BT-549 breast.

As to `CN(C)CCSC(=Nc1ccccc1)N1CCCCC1`, the TGI in experiment [1] is 31 µM; in [2] it was 39.7 µM; in [3] it was 29.8 µM; in [4], 38.8 µM; in [5], 27.5 µM; in experiment [6], 52.5 µM.
Take `O=c1[nH]c(=O)n(Cc2ccccc2CO)cc1Sc1ccccc1`: the TGI in experiment [1] is more than 100 µM; in experiment [7], 30.8 µM; in experiment [8], 81 µM; in experiment [2], 48.2 µM; in experiment [3], 29 µM; in [4], 70.6 µM. Also, the TGI in experiment [5] was more than 100 µM; in experiment [6] it was 22.9 µM; in experiment [9], more than 100 µM.
For `CSC1=C(C#N)C(=O)N(c2ccc(C)cc2)C(=S)C1C#N` (centres undefined), the TGI in experiment [1], in experiment [7], in [8], in experiment [2], in [3] and in experiment [4] was more than 100 µM each time. The TGI in [5] and in [10] was more than 100 µM in each case.
On to `Cc1nc2ccc(S(=O)(=O)O)cc2c(=O)n1-c1ccc(C(=O)NN2C(=O)C(Cl)C2c2ccccc2O)cc1` (centres undefined), for which the TGI in experiment [1], in experiment [8], in [2], in experiment [3], in [4] and in experiment [5] was more than 100 µM throughout. The TGI in [10], in experiment [6] and in experiment [9] was more than 100 µM in each case.
`Cc1cccc(NC(=O)C(=O)C(C(=O)c2ccccc2F)C2OC(=O)c3ccccc32)c1Cl` (centres undefined): the TGI in experiment [1] is 94.5 µM; in [7], 43.7 µM; in experiment [2] it was 50.6 µM; in experiment [3] it was more than 100 µM; in experiment [4], 80.9 µM; in [5], more than 100 µM. In addition, in experiment [6], the TGI is more than 100 µM.
As to `COc1ccc2c(c1)N=C1CSC(c3ccccc3Cl)N1C2` (centres undefined), the TGI in [1] stood at 18.4 µM; in experiment [7] it was 18.1 µM; in experiment [8], 72.3 µM; in experiment [2], 42.4 µM; in [4], 76.2 µM; in [5], 82.5 µM. The TGI in experiment [10] is more than 100 µM; in experiment [6] it was 1.8 µM.
Regarding `COC(=O)/C=C/c1cc(O)c2c(c1)[C@H](C(=O)OC)[C@@H](c1ccc(O)c(O)c1)O2`, the TGI is 14.5 µM in experiment [1]; 54.6 µM in experiment [7]; 4.37 µM in [2]; more than 38.8 µM in experiment [3]; more than 87 µM in experiment [4]; more than 94 µM in experiment [5]. Besides, the TGI was 30.3 µM in [10] and more than 63.5 µM in [6].
As for `CC(NC(=O)C(NC(=O)OC(C)(C)C)C(C)C)C(=O)N1CCCC1C(=O)NCC(=O)NC(C(=O)NCC(=O)OCc1ccccc1)C(C)C` (centres undefined) (Boc-VAPGVG-OBn; configuration not given here), the TGI in [7], in experiment [8], in [2], in [3], in [4] and in [5] was more than 100 µM each time. In addition, the TGI in experiment [6] and in experiment [9] was more than 100 µM each time.
As for `C1CCC(OC2CSC2)OC1` (centres undefined), the TGI in [1], in [7], in [8], in [2], in experiment [4] and in experiment [5] was more than 100 µM in each case. Also, the TGI in experiment [6] and in experiment [9] was more than 100 µM each time.
Regarding `c1ccc2c(c1)CCc1cc3cc4c(nc3nc1-2)-c1ccccc1CC4`, the TGI in [1], in experiment [7], in [2], in [3], in [4] and in experiment [6] was more than 100 µM in each case.
On to `[N-]=[N+]=CC(=O)OCC1SCCCS1`, for which the TGI in [1], in experiment [7], in experiment [3], in [4], in experiment [5] and in [10] was more than 100 µM each time. The TGI in experiment [6] and in [9] was more than 100 µM each time.
On to `COP(=O)(OC)C(Cc1c[nH]c2ccccc12)NC(=O)OCc1ccccc1` (centres undefined), for which the TGI in experiment [7], in [8], in [2], in [3], in [5] and in experiment [6] was more than 100 µM in each case. For the same molecule, the TGI in experiment [9] is more than 100 µM.
Regarding `N#C[S-].[Nd+3].c1ccc(-c2ccccn2)nc1.c1ccc(-c2ccccn2)nc1.c1ccc(-c2ccccn2)nc1`, the GI50 in experiment [1] is 5.62 µM; in [7], 7.87 µM; in experiment [2], 4.8 µM; in experiment [3] it was 11.6 µM; in experiment [6], 2.19 µM. The TGI in experiment [1] is more than 100 µM; in [7] it was more than 100 µM; in experiment [2], more than 100 µM; in experiment [3] it was 42.6 µM; in [6], 5.5 µM.
As to `O=[Se](=O)c1ccccc1.O=[Se](=O)c1ccccc1.[Cu]`, the GI50 in [1] was 9.38 µM; in experiment [7], 16.6 µM; in experiment [8], 10.5 µM; in experiment [2], 15.9 µM; in [3], 18.5 µM; in experiment [4], 17.8 µM. The figures for the GI50 in experiment [5] and in experiment [6] were 21.4 µM and 18 µM, respectively. Also, the TGI was found to be 24.6 µM in experiment [1]; 32.9 µM in experiment [7]; 30 µM in experiment [8]; 30.2 µM in experiment [2]; 37.3 µM in experiment [3]; 33.1 µM in experiment [4]. Besides, the TGI worked out at 37.3 µM in [5] and 32.5 µM in experiment [6].
With `COc1cccc(/C=N/[N-]C(N)=O)c1[O-].[Ni+2].[OH3+].c1cnc2c(c1)ccc1cccnc12`, the TGI in [1], in experiment [2], in [3], in [4], in experiment [5] and in [6] was more than 100 µM throughout.
